Data: patent publication US20260158011A1 (Achieve Life Sciences, Inc., priority 2023, published 2026)
Read-outs that look alike come from different tables or passages of the source.

Assays:
[1] = tested on: adults smoking 10+ cigarettes daily; details: for Serious AEs: ORCA-1, pooled cytisinicline arms (n = 203)
Text: Table 13 summarizes the treatment emergent adverse events (TEAEs).

[2] = tested on: adult e-cigarette users; details: for Saliva Cotinine Actual Value, Mean / Saliva Cotinine Actual Value, Median / Saliva Cotinine Change from Baseline, Mean / Saliva Cotinine Change from Baseline, Median: 12 Weeks arm, All Randomized Set; for Saliva Cotinine Change from Baseline, LS Means / Saliva Cotinine Change from Baseline, LS Means Difference from Placebo: repeated-measures ANOVA
Text: A second measurement consisted of biochemically verified continuous vaping abstinence at any time during treatment, with vaping abstinence at Week 3-6 or Week 6-9 for of cytisinicline treatment vs placebo. 7-day point prevalence rates were compared for vaping abstinence (Week 2 to 12) (FIG. 62). An additional measurement included reduction in daily vaping as measured by cotinine, where cytisinicline treatment vs placebo for a reduction in nicotine vaping using weekly quantitative cotinine levels from Week 2 to Week 12. Safety was assessed by adverse effects and serious adverse effects, considering number, severity, and attribution to study drug.
Cotinine: The data were analyzed by visit and also using a repeated measures model. […] Cotinine values less than 1 were converted to 1 due to asymmetry.

[3] = 1.5 mg downward titration (n = 51)
[4] = 3.0 mg downward titration (n = 50)
[5] = pooled cytisinicline arms (n = 203)

`O=c1cccc2n1C[C@@H]1CNC[C@H]2C1` [cytisine, (−)-Cytisine] was tested, and the “TEAE: Abnormal dreams” value ([1]; 1.5 mg TID (n = 52)) was 4 (8%) n (%), the “TEAE: At least 1 AE” value ([1]; 1.5 mg TID (n = 52)) was 20 (39%) n (%) and the “TEAE: Constipation” value ([1]; 1.5 mg TID (n = 52)) was 1 (2%) n (%). The “TEAE: Fatigue” value ([1]; 1.5 mg TID (n = 52)) was 3 (6%) n (%), the “TEAE: Headache” value ([1]; 1.5 mg TID (n = 52)) was 6 (12%) n (%) and the “TEAE: Insomnia” value ([1]; 1.5 mg TID (n = 52)) was 4 (8%) n (%). The “TEAE: Nausea” value ([1]; 1.5 mg TID (n = 52)) was 1 (2%) n (%), the “TEAE: URTI” value ([1]; 1.5 mg TID (n = 52)) was 5 (10%) n (%) and the “TEAE: Abnormal dreams” value [1, 3] was 4 (8%) n (%). For the same compound, the “TEAE: At least 1 AE” value [1, 3] was 29 (57%) n (%), the “TEAE: Fatigue” value [1, 3] was 1 (2%) n (%) and the “TEAE: Headache” value [1, 3] was 1 (2%) n (%). For the same compound, the “TEAE: Insomnia” value [1, 3] was 3 (6%) n (%), the “TEAE: Nausea” value [1, 3] was 5 (10%) n (%) and the “TEAE: URTI” value [1, 3] was 3 (6%) n (%). For the same compound, the “TEAE: Abnormal dreams” value ([1]; 3.0 mg TID (n = 50)) was 3 (6%) n (%), the “TEAE: At least 1 AE” value ([1]; 3.0 mg TID (n = 50)) was 21 (42%) n (%) and the “TEAE: Constipation” value ([1]; 3.0 mg TID (n = 50)) was 3 (6%) n (%). For the same compound, the “TEAE: Fatigue” value ([1]; 3.0 mg TID (n = 50)) was 1 (2%) n (%), the “TEAE: Headache” value ([1]; 3.0 mg TID (n = 50)) was 2 (4%) n (%) and the “TEAE: Insomnia” value ([1]; 3.0 mg TID (n = 50)) was 3 (6%) n (%). For the same compound, the “TEAE: Nausea” value ([1]; 3.0 mg TID (n = 50)) was 3 (6%) n (%), the “TEAE: URTI” value ([1]; 3.0 mg TID (n = 50)) was 3 (6%) n (%) and the “TEAE: Abnormal dreams” value [1, 4] was 7 (14%) n (%). For the same compound, the “TEAE: At least 1 AE” value [1, 4] was 23 (46%) n (%), the “TEAE: Fatigue” value [1, 4] was 2 (4%) n (%) and the “TEAE: Headache” value [1, 4] was 1 (2%) n (%). The “TEAE: Insomnia” value [1, 4] was 4 (8%) n (%), the “TEAE: Nausea” value [1, 4] was 3 (6%) n (%) and the “TEAE: URTI” value [1, 4] was 2 (4%) n (%). The “Serious AEs” value [1] was “no serious or severe adverse events”, the “Serious AEs” value ([1]; listed as Cytisinicline) was 0 and the “TEAE: Abnormal dreams” value [1, 5] was 18 (9%) n (%). The “TEAE: At least 1 AE” value [1, 5] was 93 (46%) n (%), the “TEAE: Constipation” value [1, 5] was 4 (2%) n (%) and the “TEAE: Fatigue” value [1, 5] was 7 (3%) n (%). For the same compound, the “TEAE: Headache” value [1, 5] was 10 (5%) n (%), the “TEAE: Insomnia” value [1, 5] was 14 (7%) n (%) and the “TEAE: Nausea” value [1, 5] was 12 (6%) n (%). For the same compound, the “TEAE: URTI” value [1, 5] was 13 (6%) n (%), the “Saliva Cotinine Actual Value, Mean” value ([2]; Week 2) was 133.598 ng/mL and the “Saliva Cotinine Actual Value, Median” value ([2]; Week 2) was 70.200 ng/mL. For the same compound, the “Saliva Cotinine Change from Baseline, Mean” value ([2]; Week 2) was -185.522 ng/mL, the “Saliva Cotinine Change from Baseline, Median” value ([2]; Week 2) was -182.015 ng/mL and the “Saliva Cotinine Change from Baseline, LS Means” value ([2]; Week 2) was -181.306 ng/mL. For the same compound, the “Saliva Cotinine Change from Baseline, LS Means Difference from Placebo” value ([2]; Week 2) was -32.506 ng/mL, the “Saliva Cotinine Actual Value, Mean” value ([2]; Week 3) was 112.224 ng/mL and the “Saliva Cotinine Actual Value, Median” value ([2]; Week 3) was 2.495 ng/mL. The “Saliva Cotinine Change from Baseline, Mean” value ([2]; Week 3) was -210.563 ng/mL, the “Saliva Cotinine Change from Baseline, Median” value ([2]; Week 3) was -210.500 ng/mL and the “Saliva Cotinine Change from Baseline, LS Means” value ([2]; Week 3) was -205.329 ng/mL. The “Saliva Cotinine Change from Baseline, LS Means Difference from Placebo” value ([2]; Week 3) was -72.832 ng/mL, the “Saliva Cotinine Actual Value, Mean” value ([2]; Week 4) was 112.055 ng/mL and the “Saliva Cotinine Actual Value, Median” value ([2]; Week 4) was 1.710 ng/mL. For the same compound, the “Saliva Cotinine Change from Baseline, Mean” value ([2]; Week 4) was -206.833 ng/mL, the “Saliva Cotinine Change from Baseline, Median” value ([2]; Week 4) was -203.500 ng/mL and the “Saliva Cotinine Change from Baseline, LS Means” value ([2]; Week 4) was -202.672 ng/mL. For the same compound, the “Saliva Cotinine Change from Baseline, LS Means Difference from Placebo” value ([2]; Week 4) was -74.090 ng/mL, the “Saliva Cotinine Actual Value, Mean” value ([2]; Week 5) was 111.201 ng/mL and the “Saliva Cotinine Actual Value, Median” value ([2]; Week 5) was 1.565 ng/mL. For the same compound, the “Saliva Cotinine Change from Baseline, Mean” value ([2]; Week 5) was -204.721 ng/mL, the “Saliva Cotinine Change from Baseline, Median” value ([2]; Week 5) was -187.000 ng/mL and the “Saliva Cotinine Change from Baseline, LS Means” value ([2]; Week 5) was -201.526 ng/mL. The “Saliva Cotinine Change from Baseline, LS Means Difference from Placebo” value ([2]; Week 5) was -83.364 ng/mL, the “Saliva Cotinine Actual Value, Mean” value ([2]; Week 6) was 123.705 ng/mL and the “Saliva Cotinine Actual Value, Median” value ([2]; Week 6) was 1.480 ng/mL. The “Saliva Cotinine Change from Baseline, Mean” value ([2]; Week 6) was -199.608 ng/mL, the “Saliva Cotinine Change from Baseline, Median” value ([2]; Week 6) was -168.500 ng/mL and the “Saliva Cotinine Change from Baseline, LS Means” value ([2]; Week 6) was -196.960 ng/mL. For the same compound, the “Saliva Cotinine Change from Baseline, LS Means Difference from Placebo” value ([2]; Week 6) was -79.952 ng/mL, the “Saliva Cotinine Actual Value, Mean” value ([2]; Week 7) was 133.054 ng/mL and the “Saliva Cotinine Actual Value, Median” value ([2]; Week 7) was 0 ng/mL. For the same compound, the “Saliva Cotinine Change from Baseline, Mean” value ([2]; Week 7) was -181.605 ng/mL, the “Saliva Cotinine Change from Baseline, Median” value ([2]; Week 7) was -184.000 ng/mL and the “Saliva Cotinine Change from Baseline, LS Means” value ([2]; Week 7) was -179.597 ng/mL.
